Measurements from US5087712A, “Derivatives of platinum (II) with polymethylsiloxane, method for preparing same and antitumor agent based thereon” (priority 1989, dated 1992).

Columns and labels:
humoral immunity = assay: Effect on humoral immunity: antibody-forming cells in spleen and antibodies in blood serum of tumor-carriers; type: in vivo, rats of the Vistar line
Method: (§1) The immunological activity of the compound II according to the present invention was studied by variation of the characteristics of cellular and humoral immunity.
(§2) The effect of the compound II according to the present invention on the cell immunity was assessed by the time of rejection of a skin graft in the tumor-carriers. The effect on the humoral immunity was assessed by the number of antibody-forming cells in the spleen and antibodies in the blood serum formed in response to immunization, with ram ertyhrocytes, of both intact animals and the tumor-carriers.
Use was made of rats of the Vistar line which were incoulated, under the thigh skin, with 2×10^8 cells of a regrafted strain of Schvetz'erthroleukosis. […] On the 8th day after regrafting of the tumor the animals were subjected to immuniation by way of an intravenous administration of ram erythrocytes in the dose of1×10^6 cells. 4 days after immunization the animals were slaughtered by decapitation against the background of ethereal narcosis, the spleen was taken out and the content of antobidy-forming cells was determined threein by Erne'method, as well as titres of agglutinines and hemolysines in the peripheral blood using known methods.
The content of antibody-forming cells was determined for 10^6 splenocytes and for the entire mass of the spleen.

cell immunity = assay: Effect on cell immunity: time of rejection of a skin graft in tumor-carriers; type: in vivo, male rats of the Vistar line
Method: as §1, §2
The effect of the compound II according to the present invention on the cell immunity was studied on male rats of the Vistar line with a mass of 150-200 g. The animals were subjected to transplantation, by a standard method, of a skin graft of 2×3 cm size taken from rats of the August line. Then the animals were inoculated, under the thigh skin, with 2×10^8 cells of a regrafted strain of Schvetz's erythroleukosis.
CDDP was administered in a solution, while polymethylsiloxane and the compound II of the present invention--as a powder which was introduced into an opened abdominal cavity following to above-described procedure. The intact animals were used as a control. The time of rejection of the skin graft was fixed by variation of its temperature, colour and elasticity.

[1] = system: regrafted Schvetz's erythroleukosis; assay: Antitumor activity against regrafted Schvetz's erythroleukosis in rats; type: in vivo, white non-descript rats
Method: Their antitumor activity was studies in respect of regrafted Schvetz's erythroleukosis. The antitumor activity of each of the compounds according to the present invention was assessed from the experiments carried out on white non-descript rats with a mass of 150-200 g (10 animals in a group). The animals were hypodermally inoculated (in the thigh) with 2×10^8 cells of a regrafted Schvetz's erythroleukosis strain. On the 4th day after inoculation of the tumor cells, i.e. during the period of the lograithmic phase of the tumor growth the animals were administered with the compounds according to the present invention. They were administered once intraperitoneally or directly into the tumor node as powders. The compounds according to the present invention were administered in maximum effective and minimum effective doses:
The antitumor effect of the compounds according to the present invention was studies in comparison with the control and with the known preparations--CDDP and polymethylsiloxane.
The administered dose of CDDF was 8.1 mg/kg, that of polymethylsiloxane--4,000 mg/kg. […] Polymethylsiloxane was introduced in the form of a powder. Prior to administration the powders of polymethylsiloxane and of the compounds according to the present invention were sterilized by autoclaving in sealed flasks or in package from parchment paper for one hour under the excessive pressure of 1.0 atm and at the temperatuer of 100° C.
The animals were narcotized by way of a hypodermal injection of hexenal in a dose of from 40 to 60 mg/kg in the case of an intraperitoneal adminsitration of the compounds according to the present invention. […]
The antitumor activity of the test compounds was assessed for the following biological characteristics; the degree of inhibition of the tumor growth, survival of animals on the 10th day after inoculation of the tumor cells, life span of the animals.

ovary carcinoma = settings: in combination with vinblastin, actinomycin and prednisolone; cited from earlier work
inner organs = assay: Autopsy, morphological and histological investigations of inner organs; type: in vivo, rats; mice; settings: doses lesser than the toxic one, 30th day after administration
Method: The dead animals were subjected to an autopsy and morpholigical and histological investigations of the inner organs were performed. The animals administered with the compounds in doses lesser than the toxic one were slaughtered after 3, 7, 14 and 30 days. Their inner organs were also subjected to an autopsy.

ovary cancer = assay: Clinical tests in patients with ovary cancer of the IV clinical stage; type: in vivo, human patients
Text: Depending on the treatment method all the patients were divided into 2 groups.

[2] = 4 days after immunization with ram erythrocytes
[3] = group I: compound II then CDDP, 1 year after operation, group II: CDDP only, 9 months-1 year
[4] = group I: compound II then CDDP, 2-3.5 years after the operation, group II: CDDP only

In the case of `N.N.[Cl][Pt][Cl]` [CDDP, cis-dichlorodiammonioplatinum (II)], the “Effect on humoral immunity (in words)” value (humoral immunity) is reported as “inhibits the humoral immunity”, the “Content of antibody-forming cells for the entire spleen” value (humoral immunity; [2]) is reported as “(36.42 ± 2.15) × 10^3” and the “Content of antibody-forming cells per 10^6 of splenocytes” value (humoral immunity; [2]) is reported as 20.50 ± 2.15. For the same compound, the “Effect on characteristics of the cell immunity of tumor-carriers (in words)” value (cell immunity) was “does not substantially affect the characteristics of the cell immunity of the tumor-carriers”, the “Time of rejection of a skin graft” value (cell immunity; intraperitoneal CDDP 5.6, polymethylsiloxane 2,000, compound II 550 mg/kg) was 13.5 ± 0.5 days and the Survival of animals ([1]; on the 10th day after inoculation of the tumor cells) was 80%. For the same compound, the Life span ([1]; rats with Schvetz's erythroleukosis) was 11.5 ± 0.5 days, the “Degree of inhibition of the tumor growth” value ([1]; rats, single intraperitoneal or intratumoral administration on 4th day after inoculation) was 78% and the “Effectiveness of therapy of ovary carcinoma” value (ovary carcinoma) was 100%. The “Degree and restoration of histological changes” value (inner organs) was “pronounced to even greater extent than in the case of administration of the compounds according to the present invention, they were only partly restored on the 30th day after administration”, the “Full remission, number of patients” value (ovary cancer; group I (30): compound II then CDDP, group II (47): CDDP only) was 14 patients and the “Full remission, share of patients” value (ovary cancer; group I (30 patients): compound II during operation then intraperitoneal CDDP, 2-3.5 years, group II (47 patients): CDDP only) was 30%. For the same compound, the “Deaths, number of patients” value (ovary cancer; [3]) was 9 persons, the “Deaths, share of patients” value (ovary cancer; [3]) was 19% and the “Partial remission and stabilization of the process, number of patients” value (ovary cancer; [4]) was 14 persons. The “Partial remission and stabilization of the process, share of patients” value (ovary cancer; [4]) was 30%, the “Recurrence of the tumor growth, number of patients” value (ovary cancer; group II: CDDP only) was 10 persons and the “Recurrence of the tumor growth, share of patients” value (ovary cancer; group II: CDDP only) was 21%.
